Experimental data: patent publication US5461142A, “Phosphorylated derivatives of cardiodilatin/ANF peptides” (Pharma Bissendorf Peptide GmbH, priority 1987, dated 1995)
“Also recorded” adds a separate entry of the source. No end group written: not given here.

Test system: rabbit aorta muscle strips
Assay: Bioactivity test: relaxation of norepinephrine-precontracted rabbit aorta muscle strips in organ bath
Type: cell-based, New Zealand rabbits
Conditions: for relaxation activity: Example 6, tested as in Example 5, corresponding concentrations
Procedure: Muscle strips of rabbit aorta were first contracted by the action of a solution of norepinephrine (10^-7 M). After constant conditions had been adjusted, the peptides were added (position of the arrow).
The muscle relaxation continues only after a further addition of unphosphorylated alpha-nANaP.
Aortae of New Zealand rabbits were prepared. The muscular tension was measured with a muscle strip in an organ bath containing physiological saline. The strips were pre-contracted with a solution of 10^-6 M of norepinephrin, then at fill relaxation. For the assay, a further contraction was induced with 10^-7 M of norepinephrin. After constant contraction conditions had been reached, the peptides were applied.
Alpha-hANaP was phosphorylated according to EXAMPLE 1 in the presence of ATP and the catalytic subunit according to EXAMPLE 1. For control, unphosphorylated alpha-hANaP was incubated under the same conditions, however in the absence of ATP. […] Stepwise addition of unphosphorylated, phosphorylated and in turn unphosphorylated alpha-hANaP allows clearly to recognize that only unphosphorylated alpha-hANaP exerts a significant relaxing effect in comparison to phosphorylated peptide. If the addition is reversed, first phosphorylated, then unphosphorylated and again phosphorylated alpha-hANaP, the corresponding reversed relaxation effect is found.
CDD-32 (Urodilatin) is phosphorylated according to Example 1 and investigated for its biological activity in the same manner as in Example 5.

Substance	relaxation activity	effect onto the smooth vascular musculature (relaxation) (FIG. 5, strips contracted with norepinephrine 10^-7 M, peptide final concentration 0.3 to 0.6×10^-9 M)	muscle relaxation of precontracted rabbit aorta strips (FIG. 7 / Example 5, final concentration 0.3×10^-9 M, stepwise addition, listed as phosphorylated alpha-hANaP)	relative relaxation capability (FIG. 8, phosphorylated versus unphosphorylated form at corresponding concentration)
Urodilatin [reference compound]	dose-dependant relaxation activity	–	–	–
phosphorylated CDD-28: alpha-hANaP (positions 99-126 of gamma-hANaP) phosphorylated with c-AMP-dependent proteinkinase; formula I with R = H, X = phosphate (SLRRSSCFGGRMDRIGAQSGLGCNSFRY; ends and bridges not checked; also: phosphorylated (phosphate), site not given here; UniProt P01160 124-151, looked up)	–	only a slight relaxation	an effect next to nothing; also recorded: negligible effect	–
phosphorylated CDD-32: CDD-32 (urodilatin, amino acids 95-126 of gamma-hANaP) phosphorylated according to Example 1 (TAPRSLRRSSCFGGRMDRIGAQSGLGCNSFRY; ends and bridges not checked; also: phosphorylated (phosphate), site not given here; UniProt P01160 120-151, looked up)	distinctly reduced relaxation	–	–	significantly lower relaxation capability than that of the unphosphorylated form
